{"source": "patent US10709667B2", "about": "“Hydrogel encapsulated cells and anti-inflammatory drugs” (Massachusetts Institute of Technology, priority 2011, dated 2020)", "key": {"[1]": {"system": "encapsulated islets", "type": "cell-based", "conditions": "hybrid alginate capsules with 2 mg/ml dexamethasone or 1 mg/ml curcumin, 4 days co-culture, FIG. 5", "description": "(§1) RAW 264.7 macrophages were cultured in RPMI-1640 medium supplemented with 10% FBS, 100 units/ml penicillin and 100 μg/ml streptomycin (Invitrogen). The cells were sub-cultured every 2-3 days. 0.2 million macrophages in 3 ml of fresh culture medium were seeded into each well of a six-well tissue-culture treated polystyrene plate and allowed to adhere to the plate surface over night. The culture medium was removed and encapsulated islets were added in 3 ml of fresh medium to each well with adherent macrophages. Co-culturing of encapsulated islets with macrophages was maintained for four days. Afterwards, supernatant samples were collected and frozen at −20° C. for future insulin analysis with an insulin ELISA kit (ALPCO diagnostics). Encapsulated islets were collected into new plates. Both encapsulated islets and remaining adherent macrophages were washed in HEPES buffer and subjected to live-dead fluorescent staining (Invitrogen) for viability assessment.\n(§2) An in vitro experiment was designed to test whether the presence of immune cells affects insulin secretion by islets. Hybrid alginate capsules containing islet cells and 2 mg/ml of dexamethasone or 1 mg/ml of curcumin were fabricated. Islet cells were encapsulated alone as a positive control. As a negative control, encapsulated islets were co-cultured with a macrophage cell line adherent to the plate's bottom. […]"}, "[2]": {"system": "RAW 264.7 macrophages", "test": "Co-culture of macrophages and encapsulated islets: macrophage proliferation", "type": "cell-based", "conditions": "hybrid alginate capsules with 2 mg/ml dexamethasone or 1 mg/ml curcumin, 4 days co-culture", "description": "as §1, §2"}, "[3]": {"system": "C57/B6 mice with streptozotocin (STZ)-induced diabetes", "test": "Transplantation of encapsulated rat islets into STZ-induced diabetic mice, daily blood glucose monitoring", "type": "in vivo", "conditions": "daily blood glucose over 2 months, marginal mass of islets, intraperitoneal, n=6-7", "protocol": "Alginate with high gluronic acid content SLG20 (Novamatrix, FMC Polymer, Drammen, Norway) was dissolved in sterile 0.9% (w/v) NaCl to give an alginate solution of 1.5% (w/v). To prepare hybrid drug-islet capsule, 1.5% (w/v) alginate was mixed with curcumin (Sigma Aldrich) at 0.3-1.0 mg/ml or with dexamethasone (Sigma Aldrich) at 1-2 mg/ml and stirred for 3-4 days to ensure that the drug is homogenously dispersed. During this mixing period, curcumin-alginate mixture was wrapped in aluminium foil to avoid light exposure which might oxidize this drug. One day after islet isolation, islets were washed twice with Ca-free Krebs and mixed with the alginate suspension with or without dispersed drug at a pre-cross-linking islet density of approximately 750-1000 islets/ml. […]\nMale Sprague—Dawley rats, 200-250 g, also obtained from Charles River Laboratories, were used as islet donors. […] The mice were observed daily till after the final STZ injection when they are weighed and their blood glucose levels determined. Mice were confirmed diabetic if their non-fasted blood glucose level rose above 300 mg/dL for two consecutive daily readings. […]\nXenogeneic transplants of encapsulated rat islets to diabetic mice recipients were performed to examine the reversibility of diabetes. […] Shortly thereafter, islet-containing capsules were sampled in quadruplicate, the total islets number was counted. […]"}, "[4]": {"system": "fibrosis on capsules", "test": "Fibrosis formation on capsules retrieved 60 days after transplantation (observation, DNA fluorescent staining)", "type": "in vivo, mice", "conditions": "FIG. 9", "protocol": "Sixty days after transplantation of islet-containing capsules, the mice from example 6 were sacrificed by CO2 asphyxiation. A lapratomy was performed to expose the abdominal cavity and capsules were retrieved by an abdominal lavage with HEPES buffer. The abdominal cavity was examined closely to identify remaining capsules, which if found were gently removed using atraumatic tweezers. The retrieved capsules were subsequently washed several times in HEPES buffer and imaged at 2× magnification using an EVOS brightfield microscope (AMG). Finally, capsules were transferred into a 1.5 ml Eppendorf tube, and frozen at −20° C. for future analysis.\n50 μl of retrieved capsules (120-150 alginate capsules) were transferred to each well of a 24-well Millicell® cell culture insert (Millipore) using wide-orifice pipette tips (Fisher Scientific, Pittsburgh, Pa., USA). The capsules were incubated at 37° C. for 45 min in 800 μl of 0.001 mg/ml Hoersch 33342 dye (Invitrogen) prepared from stock solution by dilution with HEPES buffer. Afterwards, these capsules were washed four times with HEPES buffer. […] Finally, fluorescent signals from the stained capsules were obtained using a Tecan UV-VIS absorbance plate reader at with the excitation and emission wavelengths of 350 nm and 460 nm respectively.\nA rigorous quantification technique was developed to assess fibrosis on capsules via DNA fluorescent staining. […]"}, "[5]": {"system": "islet cells in retrieved capsules", "test": "Insulin secretion from retrieved capsules", "type": "in vivo", "conditions": "24 hours, FIG. 10", "protocol": "Sixty days after transplantation of islet-containing capsules, the mice from example 6 were sacrificed by CO2 asphyxiation. A lapratomy was performed to expose the abdominal cavity and capsules were retrieved by an abdominal lavage with HEPES buffer. The abdominal cavity was examined closely to identify remaining capsules, which if found were gently removed using atraumatic tweezers. The retrieved capsules were subsequently washed several times in HEPES buffer and imaged at 2× magnification using an EVOS brightfield microscope (AMG). Finally, capsules were transferred into a 1.5 ml Eppendorf tube, and frozen at −20° C. for future analysis. Insulin secretion was measured from the retrieved capsules for 24 hours."}}}
{"smiles": "COc1cc(/C=C/C(=O)CC(=O)/C=C/c2ccc(O)c(OC)c2)ccc1O", "note": "[curcumin]", "values": [{"measurement": "insulin secretion from encapsulated islets co-cultured with macrophages", "setting": "[1]", "result": "restored insulin secretion"}, {"measurement": "macrophages proliferation", "setting": "[2]", "result": "hindered macrophages proliferation"}, {"measurement": "glycemic control", "setting": "[3]", "result": "improved glycemic control"}, {"measurement": "fibrosis by DNA fluorescence of retrieved capsules", "setting": "[4]", "result": "reduced fibrosis with statistical significance"}, {"measurement": "insulin secretion from retrieved capsules", "setting": "[5]", "result": "greatly improved insulin secretion"}]}
